From PMC9305358 (The Journal of Biological Chemistry, 2022)

Experiments:
FITC-casein = experiment: fluorescence polarisation
ClpC1-F444S [1] = format: biochemical, Mycobacterium tuberculosis
ClpC1-F444S [2] = format: biochemical, Mycobacterium tuberculosis; remark: listed apart in the source
ClpC1-E288A = format: biochemical, Mycobacterium tuberculosis
ClpC1-E626A = format: biochemical, Mycobacterium tuberculosis
ClpC1-WT–ClpP1P2 [3] = format: biochemical, Mycobacterium tuberculosis
ClpC1-F444S–ClpP1P2 [4] = format: biochemical, Mycobacterium tuberculosis
ClpC1-E288A with Sa ClpP = format: biochemical, Mycobacterium tuberculosis ClpC1; Staphylococcus aureus ClpP
ClpC1-E626A with Sa ClpP = format: biochemical, Mycobacterium tuberculosis ClpC1; Staphylococcus aureus ClpP
ClpC1-WT–ClpP1P2 [5] = format: biochemical, Mycobacterium tuberculosis; conditions: pH 7.5
ClpC1-F444S–ClpP1P2 [6] = format: biochemical, Mycobacterium tuberculosis; remark: listed apart in the source
ClpC1-WT–P1P2 = format: biochemical, Mycobacterium tuberculosis
ClpC1-F444S–ClpP1P2 [7] = format: biochemical, Mycobacterium tuberculosis; remark: listed apart in the source
ClpC1-WT and ClpP1P2 = format: biochemical, Mycobacterium tuberculosis
ClpC1-F444S and ClpP1P2 = format: biochemical, Mycobacterium tuberculosis
ClpC1–Sa ClpP = format: biochemical, Mycobacterium tuberculosis ClpC1; Staphylococcus aureus ClpP
Mtb cells = conditions: ref [19], cited from earlier work
NMtb–ClpC = conditions: ref [26]; cited from earlier work
Sa ClpC = conditions: ref [26]; cited from earlier work

ATPase-deficient double Walker B variant ClpC1-E288A-E626A (from UniProt P9WPC9 1-848) (enzyme)
Kd (FITC-casein): 1000 nM

CyclomarinA [CymA]
change of mass profile (ClpC1-F444S [1]): No major changes in mass profiles
change of crosslink pattern / hexamer level (ClpC1-F444S [2]): remained the same
effect on ATP hydrolysis of ClpC1-E288A (ClpC1-E288A): stimulated ATP hydrolysis of ClpC1-E288A
effect on ATP hydrolysis of ClpC1-E626A (ClpC1-E626A): but not ClpC1-E626A
inhibition of ClpC1-WT–ClpP1P2 activity (ClpC1-WT–ClpP1P2 [3]): did not observe strong inhibition
increase of basal FITC-casein degradation activity (ClpC1-WT–ClpP1P2 [3]; pH 7.5): fourfold
effect of CymA on FITC-casein degradation by ClpC1-F444S–ClpP1P2 (ClpC1-F444S–ClpP1P2 [4]): further enhanced
effect on FITC-casein degradation (ClpC1-E288A with Sa ClpP): did not enhance FITC-casein degradation
effect on FITC-casein degradation (ClpC1-E626A with Sa ClpP): did not enhance FITC-casein degradation
enhancement of GFP-SsrA degradation (ClpC1-WT–ClpP1P2 [5]): 1.8 fold
effect of CymA on GFP-SsrA degradation by ClpC1-F444S–ClpP1P2 (ClpC1-F444S–ClpP1P2 [6]): slightly reduced
effect on VapB15 degradation (ClpC1-WT–P1P2): minor inhibition
effect on VapB15 degradation (ClpC1-F444S–ClpP1P2 [7]): inhibitory effect
enhancement of FR-L-GFP degradation rate by CymA (ClpC1-WT and ClpP1P2): 1.6 fold
reduction of ClpS-dependent FR-L-GFP degradation activity of ClpC1-F444S by CymA (ClpC1-F444S and ClpP1P2): 2.3 fold
effect on FITC-casein degradation by ClpC1–Sa ClpP (ClpC1–Sa ClpP): comparable to those determined for ClpC1–ClpP1P2 complexes
toxicity to Mtb cells (Mtb cells; [20], [21], [22]): highly toxic to Mtb cells
cellular toxicity in Mtb cells (Mtb cells): severe cellular toxicity
effect on ATPase and proteolytic activities of NMtb–ClpC (NMtb–ClpC): increases both ATPase and proteolytic activities
sensitivity of Sa ClpC WT with native NTD to CymA (Sa ClpC): insensitive
